{"source": "patent US20090312280A1", "key": {"MDA-MB-231 (Breast)": {"test_system": "MDA-MB-231 (Breast)", "experiment": "cell survival / MTT combination cytotoxicity", "assay_type": "cell-based, human", "details": "IC50 cytotoxic agent alone / IC50 combination, Compound 1 at 8x EC50 (360 nM)"}, "Colo205 (Colon)": {"test_system": "Colo205 (Colon)", "experiment": "cell survival / MTT combination cytotoxicity", "assay_type": "cell-based, human", "details": "Colo205; IC50 cytotoxic agent alone / IC50 combination; Compound 1 at 8x EC50 (360 nM)"}, "PC-3 (Prostate)": {"test_system": "PC-3 (Prostate)", "experiment": "cell survival / MTT combination cytotoxicity", "assay_type": "cell-based, human", "details": "PC-3; IC50 cytotoxic agent alone / IC50 combination; Compound 1 at 8x EC50 (360 nM)"}, "K562 (Leukemia)": {"test_system": "K562 (Leukemia)", "experiment": "cell survival / MTT combination cytotoxicity", "assay_type": "cell-based, human", "details": "IC50 cytotoxic agent alone / IC50 combination, Compound 1 at 4x EC50 (180 nM)"}, "HT29 (Colon)": {"test_system": "HT29 (Colon)", "experiment": "cell survival / MTT combination cytotoxicity", "assay_type": "cell-based, human", "details": "HT29; IC50 cytotoxic agent alone / IC50 combination; Compound 1 at 8x EC50 (360 nM)"}, "[1]": {"test_system": "Colo205 human colon carcinoma xenografts", "experiment": "in vivo chemopotentiation, Colo205 xenograft", "set-up": "species or system mice", "experimental": "Experiments 1 to 39 were conducted in mice xenografts. Experiments 40-42 were conducted in rat xenografts. Specifically, irinotecan combination studies were conducted in HT29 and Colo205. Gemcitabine combination studies were conducted in Colo205. Docetaxel combination studies were conducted in Colo205.\nGemcitabine and irinotecan are DNA directed cytotoxics known to induce checkpoint activation and subsequent S/G2M-phase arrest. […] Docetaxel is an antimitotics where recent discoveries describe a novel function for CHK1 in the mitotic checkpoint."}, "[2]": {"details": "Exp 1, gemcitabine 120 mg/kg IP Q3d×4, Compound 1 0 mg/kg"}, "[3]": {"details": "Exp 2, gemcitabine 120 mg/kg IP Q3d×4 + Compound 1 4 mg/kg IP Q3d×4 24 h after"}, "[4]": {"details": "Exp 3, gemcitabine 120 mg/kg IP Q3d×4 + Compound 1 8 mg/kg IP Q3d×4 24 h after"}, "[5]": {"details": "Exp 4, gemcitabine 120 mg/kg IP Q3d×4 + Compound 1 12 mg/kg IP Q3d×4 24 h after"}, "[6]": {"details": "Exp 5, gemcitabine 120 mg/kg IP Q3d×4 + Compound 1 20 mg/kg IP Q3d×4 24 h after"}, "[7]": {"details": "Exp 6, gemcitabine 120 mg/kg IP Q3d×4 + Compound 1 24 mg/kg IP Q3d×4 24 h after"}, "[8]": {"details": "Exp 7, gemcitabine 120 mg/kg IP Q3d×4 + Compound 1 40 mg/kg IP Q3d×4 24 h after"}}}
{"smiles": "Nc1ccn([C@@H]2O[C@H](CO)[C@@H](O)C2(F)F)c(=O)n1", "note": "[Gemcitabine]", "values": [{"measurement": "PF50 (Potentiation Factor50)", "setting": "MDA-MB-231 (Breast)", "result": 3.6}, {"measurement": "PF50 (Potentiation Factor50)", "setting": "Colo205 (Colon)", "result": 11.3}, {"measurement": "PF50 (Potentiation Factor50)", "setting": "PC-3 (Prostate)", "result": 12.2}, {"measurement": "PF50 (Potentiation Factor50)", "setting": "K562 (Leukemia)", "result": 5.6}, {"measurement": "PF50 (Potentiation Factor50)", "setting": "HT29 (Colon)", "result": 9}, {"measurement": "% TGI", "setting": "[1]; [2]", "result": 58, "unit": "%"}, {"measurement": "Growth delay", "setting": "[1]; [2]", "result": 8, "unit": "days"}, {"measurement": "% TGI", "setting": "[1]; [3]", "result": 58, "unit": "%"}, {"measurement": "Growth delay", "setting": "[1]; [3]", "result": 8, "unit": "days"}, {"measurement": "% TGI", "setting": "[1]; [4]", "result": 63, "unit": "%"}, {"measurement": "% poten TGI", "setting": "[1]; [4]", "result": 12, "unit": "%"}, {"measurement": "Growth delay", "setting": "[1]; [4]", "result": 8, "unit": "days"}, {"measurement": "% TGI", "setting": "[1]; [5]", "result": 68, "unit": "%"}, {"measurement": "% poten TGI", "setting": "[1]; [5]", "result": 23, "unit": "%"}, {"measurement": "Growth delay", "setting": "[1]; [5]", "result": 8.5, "unit": "days"}, {"measurement": "% TGI", "setting": "[1]; [6]", "result": 76, "unit": "%"}, {"measurement": "% TTP", "setting": "[1]; [6]", "result": 17, "unit": "%"}, {"measurement": "% poten TGI", "setting": "[1]; [6]", "result": 43, "unit": "%"}, {"measurement": "Growth delay", "setting": "[1]; [6]", "result": 12, "unit": "days"}, {"measurement": "% TGI", "setting": "[1]; [7]", "result": 81, "unit": "%"}, {"measurement": "% TTP", "setting": "[1]; [7]", "result": 17, "unit": "%"}, {"measurement": "% poten TGI", "setting": "[1]; [7]", "result": 55, "unit": "%"}, {"measurement": "Growth delay", "setting": "[1]; [7]", "result": 12, "unit": "days"}, {"measurement": "% TGI", "setting": "[1]; [8]", "result": 90, "unit": "%"}, {"measurement": "% TTP", "setting": "[1]; [8]", "result": 50, "unit": "%"}, {"measurement": "% poten TGI", "setting": "[1]; [8]", "result": 75, "unit": "%"}, {"measurement": "Growth delay", "setting": "[1]; [8]", "result": 20, "unit": "days"}]}
